# According to paper PMC9043270, “β-Blockers bearing hydroxyethylamine and hydroxyethylene as potential SARS-CoV-2 Mpro inhibitors: rational based design, in silico, in vitro, and SAR studies for lead optimization” (RSC Advances, 2021):
# Molecular target: T1, SARS-CoV-2 Mpro (3CL protease) (Severe acute respiratory syndrome coronavirus 2, UniProt P0DTD1)
# T1 construct: gene rep
# Test: fluorogenic substrate 3CL protease assay kit
# Format: biochemical
# Details: read-out: IC50 (μg ml^-1) (converted)
# Source text: fluorogenic substrate 3CL protease assay kit on SARS-CoV-2 Mpro (3CL protease)
row,Compound,IC50
1,Cc1cccc(C)c1OCC(=O)N[C@@H](Cc1ccccc1)[C@@H](O)C[C@H](Cc1ccccc1)NC(=O)[C@H](C(C)C)N1CCCNC1=O [Lopinavir],117 µM
2,"CC(C)NCC(O)COc1ccc(COCCOC(C)C)cc1 (stereo not shown) [compound 8, Bisoprolol]",364 µM
3,"COc1ccccc1OCCNCC(O)COc1cccc2[nH]c3ccccc3c12 (stereo not shown) [compound 17, Carvedilol]",503 µM
4,"OC(CNCC(O)C1CCc2cc(F)ccc2O1)C1CCc2cc(F)ccc2O1 (stereo not shown) [compound 20, Nebivolol]",148 µM
